Reference: US9399626B2, “2-thiopyrimidinones” (Pfizer Inc., priority 2011, dated 2016)
Blank lines part the entries; values can stand above or below the compound they belong to.

Target: T1, MPO (purified from human polynuclear leukocytes) (Homo sapiens, UniProt P05164)
T1 construct: purified from human polynuclear leukocytes; purchased Calbiochem/EMD Biosciences; host or cells: human polynuclear leukocytes (natural source)
Test: MPO Amplex Red Activity Assay
Format: biochemical
Summary of the method: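 Potency is given as kinact/KI: kobs values from 600 s progress curves, minus the uninhibited rate, are fit against inhibitor concentration. Reactions use 2 μM H2O2, 30 μM Amplex Red, pH 7.4 phosphate buffer with NaCl, DTPA and 2% DMSO, started with […] human MPO. Readout is resorufin fluorescence, catalase background subtracted.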

T1 sequence (P05164 279-745 limits assumed): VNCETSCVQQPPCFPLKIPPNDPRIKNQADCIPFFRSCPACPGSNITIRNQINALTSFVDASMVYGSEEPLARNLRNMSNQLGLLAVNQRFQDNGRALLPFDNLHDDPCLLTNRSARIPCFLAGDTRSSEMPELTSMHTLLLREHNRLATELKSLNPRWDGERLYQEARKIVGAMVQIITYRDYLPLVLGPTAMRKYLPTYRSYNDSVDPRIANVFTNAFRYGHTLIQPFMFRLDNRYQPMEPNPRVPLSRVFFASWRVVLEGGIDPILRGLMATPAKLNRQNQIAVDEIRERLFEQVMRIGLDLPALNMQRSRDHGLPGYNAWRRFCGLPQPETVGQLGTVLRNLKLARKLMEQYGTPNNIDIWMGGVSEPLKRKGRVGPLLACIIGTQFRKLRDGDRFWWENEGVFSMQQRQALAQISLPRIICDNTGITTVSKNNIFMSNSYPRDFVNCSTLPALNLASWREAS
T1 sequence (P05164 165-273 limits assumed): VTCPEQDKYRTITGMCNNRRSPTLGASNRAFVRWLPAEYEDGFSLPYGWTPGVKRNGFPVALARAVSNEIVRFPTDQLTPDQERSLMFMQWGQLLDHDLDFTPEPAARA

Structure (SMILES): COCCn1c(-c2cnc(N(C)C)cc2OC)cc(=O)[nH]c1=S [Example 338, 6-[6-(dimethylamino)-4-methoxypyridin-3-yl]-1-(2-methoxyethyl)-2-thioxo-2,3-dihydropyrimidin-4(1H)-one]
MPO kinact/Ki (Table 1, 2 μM H2O2, pH 7.4): 1280 1/s per M

Structure (SMILES): COCCn1c(-c2c(OC)ccc3ccccc23)cc(=O)[nH]c1=S [Example 339, 1-(2-methoxyethyl)-6-(2-methoxy-1-naphthyl)-2-thioxo-2,3-dihydropyrimidin-4(1H)-one]
MPO kinact/Ki (Table 1, 2 μM H2O2, pH 7.4): 10400 1/s per M

Structure (SMILES): COCCn1c(-c2cc3c(cc2OC)CCCC3)cc(=O)[nH]c1=S [Example 341, 1-(2-methoxyethyl)-6-(3-methoxy-5,6,7,8-tetrahydronaphthalen-2-yl)-2-thioxo-2,3-dihydropyrimidin-4(1H)-one]
MPO kinact/Ki (Table 1, 2 μM H2O2, pH 7.4): 14300 1/s per M

Structure (SMILES): COCCn1c(-c2cc(OC)c(OC)c(OC)c2)cc(=O)[nH]c1=S [Example 342, 1-(2-methoxyethyl)-2-thioxo-6-(3,4,5-trimethoxyphenyl)-2,3-dihydropyrimidin-4(1H)-one]
MPO kinact/Ki (Table 1, 2 μM H2O2, pH 7.4): 817 1/s per M

Structure (SMILES): COCCn1c(-c2ccc(OC)c(OC)c2OC)cc(=O)[nH]c1=S [Example 343, 1-(2-methoxyethyl)-2-thioxo-6-(2,3,4-trimethoxyphenyl)-2,3-dihydropyrimidin-4(1H)-one]
MPO kinact/Ki (Table 1, 2 μM H2O2, pH 7.4): 3570 1/s per M

Structure (SMILES): COCCn1c(-c2cc(C(C)C)c(F)cc2OC)cc(=O)[nH]c1=S [Example 344, 6-(4-fluoro-5-isopropyl-2-methoxyphenyl)-1-(2-methoxyethyl)-2-thioxo-2,3-dihydropyrimidin-4(1H)-one]
MPO kinact/Ki (Table 1, 2 μM H2O2, pH 7.4): 8480 1/s per M

Structure (SMILES): COCCn1c(-c2ccc(OC)c3nc(C)ccc23)cc(=O)[nH]c1=S [Example 345, 1-(2-methoxyethyl)-6-(8-methoxy-2-methylquinolin-5-yl)-2-thioxo-2,3-dihydropyrimidin-4(1H)-one]
MPO kinact/Ki (Table 1, 2 μM H2O2, pH 7.4): 946 1/s per M

Structure (SMILES): COCCn1c(-c2cc(F)ccc2OC(F)(F)F)cc(=O)[nH]c1=S [Example 346]
MPO kinact/Ki (Table 1, 2 μM H2O2, pH 7.4): 5890 1/s per M

Structure (SMILES): NC(=O)Cn1c(-c2ccccc2OCCO)cc(=O)[nH]c1=S [Example 349, 2-(6-(2-(2-Hydroxyethoxy)phenyl)-4-oxo-2-thioxo-3,4-dihydropyrimidin-1(2H)-yl)acetamide]
MPO kinact/Ki (Table 1A, 2 μM H2O2, pH 7.4): 3630 1/s per M

Structure (SMILES): COC(=O)/N=C(/N)NCCCn1c(-c2cc(Cl)ccc2OC)cc(=O)[nH]c1=S [Example 350, Methyl[amino({3-[6-(5-chloro-2-methoxyphenyl)-4-oxo-2-thioxo-3,4-dihydropyrimidin-1(2H)-yl]propyl}amino)methylidene]carbamate]
MPO kinact/Ki (Table 1A, 2 μM H2O2, pH 7.4): 8740 1/s per M

Structure (SMILES): COc1ccc(F)cc1-c1cc(=O)[nH]c(=S)n1CCCNC(=N)N1CC(F)(F)C1 [Example 351, 3,3-Difluoro-N-{3-[6-(5-fluoro-2-methoxyphenyl)-4-oxo-2-thioxo-3,4-dihydropyrimidin-1(2H)-yl]propyl}azetidine-1-carboximidamide]
MPO kinact/Ki (Table 1A, 2 μM H2O2, pH 7.4): 7870 1/s per M

Structure (SMILES): COc1ccc(OC)c(-c2cc(=O)[nH]c(=S)n2CCNC(=O)CN)c1 [Example 352, N-{2-[6-(2,5-dimethoxyphenyl)-4-oxo-2-thioxo-3,4-dihydropyrimidin-1(2H)-yl]ethyl}glycinamide]
MPO kinact/Ki (Table 1A, 2 μM H2O2, pH 7.4): 6720 1/s per M

Structure (SMILES): COc1ccc(Cl)cc1-c1cc(=O)[nH]c(=S)n1CCCNS(C)(=O)=O [Example 353, N-{3-[6-(5-chloro-2-methoxyphenyl)-4-oxo-2-thioxo-3,4-dihydropyrimidin-1(2H)-yl]propyl}methanesulfonamide]
MPO kinact/Ki (Table 1A, 2 μM H2O2, pH 7.4): 11000 1/s per M

Structure (SMILES): NCCn1c(-c2cc3ccccc3s2)cc(=O)[nH]c1=S [Example 354, 1-(2-aminoethyl)-6-(1-benzothiophen-2-yl)-2-thioxo-2,3-dihydropyrimidin-4(1H)-one]
MPO kinact/Ki (Table 1A, 2 μM H2O2, pH 7.4): 1830 1/s per M

Next, values leading:

MPO kinact/Ki (Table 1, 2 μM H2O2, pH 7.4): 1880 1/s per M
Structure (SMILES): COCCn1c(-c2ccc(OC(C)C)cc2)cc(=O)[nH]c1=S [Example 327, 6-(4-isopropoxyphenyl)-1-(2-methoxyethyl)-2-thioxo-2,3-dihydropyrimidin-4(1H)-one]

MPO kinact/Ki (Table 1, 2 μM H2O2, pH 7.4): 4370 1/s per M
Structure (SMILES): COCCn1c(-c2ccccc2OC(C)C)cc(=O)[nH]c1=S [Example 328, 6-(2-isopropoxyphenyl)-1-(2-methoxyethyl)-2-thioxo-2,3-dihydropyrimidin-4(1H)-one]

MPO kinact/Ki (Table 1, 2 μM H2O2, pH 7.4): 963 1/s per M
Structure (SMILES): COCCn1c(-c2cccc(OC)c2OC)cc(=O)[nH]c1=S [Example 329, 6-(2,3-dimethoxyphenyl)-1-(2-methoxyethyl)-2-thioxo-2,3-dihydropyrimidin-4(1H)-one]

MPO kinact/Ki (Table 1, 2 μM H2O2, pH 7.4): 5210 1/s per M
Structure (SMILES): COCCn1c(-c2cc(OC)cc(OC)c2)cc(=O)[nH]c1=S [Example 330, 6-(3,5-dimethoxyphenyl)-1-(2-methoxyethyl)-2-thioxo-2,3-dihydropyrimidin-4(1H)-one]

MPO kinact/Ki (Table 1, 2 μM H2O2, pH 7.4): 6330 1/s per M
Structure (SMILES): COCCn1c(-c2ccc(OC)c(OC)c2)cc(=O)[nH]c1=S [Example 331, 6-(3,4-dimethoxyphenyl)-1-(2-methoxyethyl)-2-thioxo-2,3-dihydropyrimidin-4(1H)-one]

MPO kinact/Ki (Table 1, 2 μM H2O2, pH 7.4): 3270 1/s per M
Structure (SMILES): COCCn1c(-c2ccc(OC)nc2OC)cc(=O)[nH]c1=S [Example 332, 6-(2,6-dimethoxypyridin-3-yl)-1-(2-methoxyethyl)-2-thioxo-2,3-dihydropyrimidin-4(1H)-one]

MPO kinact/Ki (Table 1, 2 μM H2O2, pH 7.4): 6100 1/s per M
Structure (SMILES): COCCn1c(-c2cc(Cl)ccc2OC)cc(=O)[nH]c1=S [Example 333, 6-(5-chloro-2-methoxyphenyl)-1-(2-methoxyethyl)-2-thioxo-2,3-dihydropyrimidin-4(1H)-one]

MPO kinact/Ki (Table 1, 2 μM H2O2, pH 7.4): 6840 1/s per M
Structure (SMILES): COCCn1c(-c2ccc(OC)cc2Cl)cc(=O)[nH]c1=S [Example 334, 6-(2-chloro-4-methoxyphenyl)-1-(2-methoxyethyl)-2-thioxo-2,3-dihydropyrimidin-4(1H)-one]

MPO kinact/Ki (Table 1, 2 μM H2O2, pH 7.4): 9820 1/s per M
Structure (SMILES): COCCn1c(-c2ccc(Cl)cc2OC)cc(=O)[nH]c1=S [Example 335, 6-(4-chloro-2-methoxyphenyl) 1-(2-methoxyethyl)-2-thioxo-2,3-dihydropyrimidin-4(1H)-one]

MPO kinact/Ki (Table 1, 2 μM H2O2, pH 7.4): 589 1/s per M
Structure (SMILES): COCCn1c(-c2ccc(C(=O)N(C)C)cc2)cc(=O)[nH]c1=S [Example 336, 4-[3-(2-methoxyethyl)-6-oxo-2-thioxo-1,2,3,6-tetrahydropyrimidin-4-yl]-N,N-dimethylbenzamide]

MPO kinact/Ki (Table 1, 2 μM H2O2, pH 7.4): 13200 1/s per M
Structure (SMILES): COCCn1c(-c2cc(C(C)C)ccc2OC)cc(=O)[nH]c1=S [Example 337, 6-(5-isopropyl-2-methoxyphenyl)-1-(2-methoxyethyl)-2-thioxo-2,3-dihydropyrimidin-4(1H)-one]

MPO kinact/Ki (Table 1, 2 μM H2O2, pH 7.4): 1450 1/s per M
Structure (SMILES): COCCn1c(-c2cccc(OC(F)(F)F)c2)cc(=O)[nH]c1=S [Example 340]

MPO kinact/Ki (Table 1, 2 μM H2O2, pH 7.4): 378 1/s per M
Structure (SMILES): COCCn1c(-c2ccc(S(=O)(=O)N(C)C)cc2)cc(=O)[nH]c1=S [Example 347, 4-[3-(2-methoxyethyl)-6-oxo-2-thioxo-1,2,3,6-tetrahydropyrimidin-4-yl]-N,N-dimethylbenzenesulfonamide]

MPO kinact/Ki (Table 1, 2 μM H2O2, pH 7.4): 1400 1/s per M
Structure (SMILES): COCCn1c(-c2cccc(S(=O)(=O)N(C)C)c2)cc(=O)[nH]c1=S [Example 348, 3-[3-(2-methoxyethyl)-6-oxo-2-thioxo-1,2,3,6-tetrahydropyrimidin-4-yl]-N,N-dimethylbenzenesulfonamide]
